Measured values taken from patent publication US20240216321A1, “FERMENTATIVELY-PRODUCED RETINOID CONTAINING COMPOSITIONS, AND THE METHDOS OF MAKING AND USING THE SAME” (DSM IP Assets B.V., priority 2022, published 2024).

Key:
Corynebacterium xerosis = assay: Antimicrobial efficacy test in analogy to challenge test NF EN ISO11930; assay type: cell-based; conditions: initial inoculum count 100,000, 22° C.
Protocol: (§1) The antimicrobial efficacy of retinol and retinyl acetate having different cis/trans ratio has been assessed in analogy to the regulatory challenge test method (NF EN ISO11930). Thus, solutions of the respective retinol and retinyl acetate mixtures (reference samples and inventive mixtures with a purity of about 98%) were prepared in physiological serum with 0.85 wt.-% NaCl under sterile conditions. The presence of cis and trans-isomers in the retinoid component were calculated by reversed phase C4 HPLC analysis, with the total cis-isomer content in the retinoid component, relative to the total weight of trans-isomers in the retinoid component detected, is reported in Table 4 below along the row labelled “cis/trans ratio”. Also reported for each sample was the specific retinoid used as the retinoid component (either retinyl acetate or retinol for all samples). The solutions of the active(s) were then deposed in 96-deep well plates (1.6 ml/well) at a concentration as specified by wt. % in Table 4 below. The wells were contaminated with Cutibacterium acnes, Corynebacterium xerosis, and Malassezia furfur, respectively, to obtain the initial contamination. The initial contamination count, which is listed as “initial inoculum count” for each test as indicated in Tale 4 below, was determined to be 100,000. After contamination, each well was thoroughly mixed to ensure a homogeneous distribution of the microbes. Then each plate was incubated at 22° C. for 24 h. The counting of the (remaining) population was carried out 24 hours after contamination, as indicated below in Table 4 by the rows labelled “24 hr”. The change in count from the initial inoculum count to the 24-hour count (in terms of percentage) is reflected in the Table below by the rows labelled “A R”.

Cutibacterium acnes = assay: as above; assay type: cell-based; conditions: for 24 hr count (remaining population) / Δ R (change from initial inoculum count to 24-hour count): initial inoculum count 100,000, 22° C.; for reduction of Cutibacterium acnes: stated as reduction
Protocol: as §1

Malassezia furfur = assay: as above; assay type: cell-based; conditions: concentration 0.25%, initial inoculum count 100,000, 22° C.
Protocol: as §1

[1] = assay type: physicochemical
Protocol: Retinoid quantification: Analysis of retinoids were carried out with a C4 reverse phase retinoid method (see below). The addition of all added intermediates gives the total amount of retinoids.
C4 reverse phase chromatography. For exact determination of discrete retinoids, the long run reverse phase system was used. Analytes were separated using the Agilent 1290 instrument with YMC Pro C4, 150×3.0 mm, 3 um column (YMC America, Allentown PA) stationary phase, and a 5 μl injection loop volume and column and sample tray controlled at 23° C. with gradients described in Table B. Analytes were detected at 210, 230 nm and 325 nm and the peak's identity was verified with LCMS. The analytes were separated as discrete peaks that were assigned according to the table below. […]
To determine oxidative stability of examples 1-5, each sample, the preparation of which is described above, was placed under ambient conditions (20° C. and 50% relative humidity preferred) in its own small brown glass vial, blanketed with argon, and put into an oven preheated to 105° C. Thereafter, the samples remained in the oven for 3 hours. After three hours the samples were taken out of the oven and analyzed via the same method(s) utilized to determine “initial” values as reported in Table 1 above. The values for each component were measured after the thermal stress test and compared to the values determined prior to the test. For clarity, example 1 indicated a total retinoid component (see row in Table 1 above labelled “all retinyl acetate (all species)”) prior to the thermal stress test of 90.53%; the change indicated in Table 2 of −1.31% below signifies that the total retinoid component determined after the thermal stress test was 89.22% (by weight relative to the entire sample weight).

[2] = 105° C. for 3 hours, blanketed with argon, change vs value before test

Row | Compound | 24 hr count (remaining population) (Corynebacterium xerosis; concentration 0.1%) | Δ R (change from initial inoculum count to 24-hour count) (Corynebacterium xerosis; concentration 0.1%) | 24 hr count (remaining population) (Corynebacterium xerosis; concentration 0.25%) | Δ R (change from initial inoculum count to 24-hour count) (Corynebacterium xerosis; concentration 0.25%) | 24 hr count (remaining population) (Cutibacterium acnes; concentration 0.1%) | Δ R (change from initial inoculum count to 24-hour count) (Cutibacterium acnes; concentration 0.1%) | reduction of Cutibacterium acnes (Cutibacterium acnes; retinyl acetate mixtures) | 24 hr count (remaining population) (Malassezia furfur) | Δ R (change from initial inoculum count to 24-hour count) (Malassezia furfur) | 24 hr count (remaining population) (Cutibacterium acnes; concentration 0.25%) | Δ R (change from initial inoculum count to 24-hour count) (Cutibacterium acnes; concentration 0.25%) | also measured
1 | CC(=O)OC/C=C(C)/C=C/C=C(C)/C=C/C1=C(C)CCCC1(C)C [Ex. 7, Retinyl acetate] | 370,000 | 270% | 40,000 | −60% | 370,000 | 270% |  |  |  |  |  | 
2 | CC(=O)OC/C=C(C)/C=C/C=C(C)/C=C/C1=C(C)CCCC1(C)C [Ex. 8, Retinyl acetate] | 70,000 | −30% | 37,000 | −63% | 70,000 | −30% | about 30% |  |  |  |  | 
3 | CC(=O)OC/C=C(C)/C=C/C=C(C)/C=C/C1=C(C)CCCC1(C)C [Ex. 9, Retinyl acetate] | 70,000 | −30% | 10,000 | −90% | 70,000 | −30% | about 30% |  |  |  |  | 
4 | CC1=C(/C=C/C(C)=C/C=C/C(C)=C/CO)C(C)(C)CCC1 [Ex. 10, Retinol] |  |  |  |  |  |  |  | 100,000 | 0% | 1,000 | −99% | 
5 | CC1=C(/C=C/C(C)=C/C=C/C(C)=C/CO)C(C)(C)CCC1 [Ex. 11, Retinol] |  |  |  |  |  |  |  | 40,000 | −60% | 700 | −99.3% | reduction of Cutibacterium acnes (Cutibacterium acnes; retinol compositions): 99.3%
6 | CC(=O)OC/C=C(C)/C=C/C=C(C)/C=C/C1=C(C)CCCC1(C)C [Example 5, retinyl acetate] |  |  |  |  |  |  |  |  |  |  |  | 9Z-retinal, % change [1, 2]: 0.00%; Dihydro-actinidiole, % change [1, 2]: −0.01%; Dihydro-retinol, % change [1, 2]: 0.00%; E-Retinal, % change [1, 2]: −0.01%; E-retinol, % change [1, 2]: −0.01%; Retinyl acetate (all species), % change [1, 2]: −5.50%; Z-retinol, % change [1, 2]: −0.04%; cis-retinyl acetate, % change [1, 2]: −0.22%; Ethanol, % change ([1]; 105° C. for 3 hours, blanketed with argon, change vs value before test (wt. % of entire composition)): 0.00%; reduction in retinyl acetate (loss of retinyl acetate content) after heat stability test ([1]; 3 h): 5.50%
